System: mice with isoproterenol (ISO)-induced ischemic heart disease
Assay: ISO-induced ischemic heart disease mouse model: myocardial tissue pathology (H&E)
Type: in vivo
Conditions: for The number of animals with lesion degree + / The number of animals with lesion degree ++ / The number of animals with lesion degree +++ / The number of animals with lesion degree ++++ / The number of animals with lesion degree +++++ / The number of animals with lesion degree − / average score of myocardial tissue lesion degree: H&E; for pathological damage of myocardial tissue (H&E staining): three doses (0.1, 0.5, 2 mg/kg) by gavage
Procedure: Male C57BL/6 mice were allowed to acclimate to the environment and then randomly divided into 9 groups, namely the blank control group, the ISO model group, the ISO+diltiazem 20 mg/kg positive control drug group, the ISO+Formula I (0.1, 0.5, 2 mg/kg) groups, and the ISO+Formula II (0.1, 0.5, 2 mg/kg) groups. Mice in the drug administration groups were intragastrically administered the corresponding doses of Formula I and Formula II compounds once a day at the same time. Mice in the positive drug diltiazem group were intragastrically administered the corresponding dose of diltiazem once a day. Mice in the blank control group and the model group were given the same amount of solvent (0.5% CMC-Na). The administration volume was 10 mL/kg, and the administration was continuous for 11 days.
From the 4th to the 10th day of drug administration, ISO modeling was carried out. The blank control group was subcutaneously injected with normal saline, and mice in the other groups were subcutaneously injected with ISO at a dose of 40 mg/kg (modeling was performed 2 hours after drug administration), for a total of 7 times.
Pathological detection of myocardial tissue: After the experiment ended, the heart was washed with ice-cold physiological saline and dried with absorbent paper. It was then cut transversely into two halves. One-third of the part closer to the apex of the heart was fixed in a 4% paraformaldehyde solution. After dehydration with gradient ethanol and clearing with xylene, it was immersed in melted paraffin three times for embedding, 30 minutes each time. After embedding, continuous sections (about 4 μm thick) were made. Routine hematoxylin and eosin (H.E.) staining was performed. The pathological state of the myocardial tissue was observed under an optical microscope, photographed, and analyzed.
• −: No abnormalities were observed. • +: No myocardial tissue damage was seen. There was local hypertrophy of cardiomyocytes in the interventricular septum and papillary muscles, local edema and degeneration of cardiomyocytes, widening of the local muscle space in the lesion area, and mild non-specific inflammation in the interstitium. • ++: No obvious myocardial tissue damage (cardiomyocyte necrosis) was observed. There was local hypertrophy of cardiomyocytes in the interventricular septum and papillary muscles, local edema and degeneration of cardiomyocytes. Myofibril dissolution (disappearance of cross-striations) could be seen in local areas. The lesions were relatively limited and distributed in small foci. Non-specific inflammation was visible in the interstitium, and local fibrous tissue hyperplasia in the interstitium was noted. • +++: There was obvious hypertrophy of cardiomyocytes in the interventricular septum and papillary muscles, local edema and degeneration of cardiomyocytes. […] The lesion was limited to the subendocardium of the local interventricular septum (or papillary muscle), with a limited and small affected area. Non-specific inflammation was visible in the interstitium of the lesion area, and local fibrous tissue hyperplasia in the interstitium was noted. • ++++: The hypertrophy of cardiomyocytes in the interventricular septum and papillary muscles is remarkable. Locally, there is edema and degeneration of cardiomyocytes; there is obvious damage (necrosis of cardiomyocytes) in the myocardial tissue of the local interventricular septum and papillary muscles. The lesions are distributed in foci (or small patches), and the affected area is relatively large. […] Locally, there is edema and degeneration of cardiomyocytes; the damage (necrosis of cardiomyocytes) of the myocardial tissue of the local interventricular septum and papillary muscles is severe. The damage (necrosis) lesions are distributed in patches and are connected to each other. Transmural myocardial tissue damage of the interventricular septum and papillary muscles can be seen locally.

SMILES: Cc1c(O)cc(O)c2c(=O)c(Cc3ccc4c(c3)OCO4)coc12 [Formula II, 3-(benzo[d][1,3]dioxol-5-ylmethyl)-5,7-dihydroxy-8-methyl-4H-chromen-4-one]
- The number of animals with lesion degree + (0.1 mg/kg): 2
- The number of animals with lesion degree ++ (0.1 mg/kg): 4
- The number of animals with lesion degree +++ (0.1 mg/kg): 4
- The number of animals with lesion degree ++++ (0.1 mg/kg): 0
- The number of animals with lesion degree +++++ (0.1 mg/kg): 0
- The number of animals with lesion degree − (0.1 mg/kg): 0
- average score of myocardial tissue lesion degree (0.1 mg/kg): 2.20 ± 0.79
- The number of animals with lesion degree + (0.5 mg/kg): 3
- The number of animals with lesion degree ++ (0.5 mg/kg): 4
- The number of animals with lesion degree +++ (0.5 mg/kg): 3
- The number of animals with lesion degree ++++ (0.5 mg/kg): 0
- The number of animals with lesion degree +++++ (0.5 mg/kg): 0
- The number of animals with lesion degree − (0.5 mg/kg): 0
- average score of myocardial tissue lesion degree (0.5 mg/kg): 2.00 ± 0.82
- The number of animals with lesion degree + (2 mg/kg): 6
- The number of animals with lesion degree ++ (2 mg/kg): 1
- The number of animals with lesion degree +++ (2 mg/kg): 0
- The number of animals with lesion degree ++++ (2 mg/kg): 0
- The number of animals with lesion degree +++++ (2 mg/kg): 0
- The number of animals with lesion degree − (2 mg/kg): 4
- average score of myocardial tissue lesion degree (2 mg/kg): 0.73 ± 0.65
- pathological damage of myocardial tissue (H&E staining): significantly improve the pathological damage of myocardial tissue

SMILES: O=c1c(Cc2ccc3c(c2)OCO3)coc2cc(O)cc(O)c12 [Formula I]
- The number of animals with lesion degree + (0.1 mg/kg): 0
- The number of animals with lesion degree ++ (0.1 mg/kg): 2
- The number of animals with lesion degree +++ (0.1 mg/kg): 5
- The number of animals with lesion degree ++++ (0.1 mg/kg): 2
- The number of animals with lesion degree +++++ (0.1 mg/kg): 0
- The number of animals with lesion degree − (0.1 mg/kg): 0
- average score of myocardial tissue lesion degree (0.1 mg/kg): 3.00 ± 0.71
- The number of animals with lesion degree + (0.5 mg/kg): 2
- The number of animals with lesion degree ++ (0.5 mg/kg): 4
- The number of animals with lesion degree +++ (0.5 mg/kg): 4
- The number of animals with lesion degree ++++ (0.5 mg/kg): 0
- The number of animals with lesion degree +++++ (0.5 mg/kg): 0
- The number of animals with lesion degree − (0.5 mg/kg): 0
- average score of myocardial tissue lesion degree (0.5 mg/kg): 2.20 ± 0.79
- The number of animals with lesion degree + (2 mg/kg): 6
- The number of animals with lesion degree ++ (2 mg/kg): 3
- The number of animals with lesion degree +++ (2 mg/kg): 0
- The number of animals with lesion degree ++++ (2 mg/kg): 0
- The number of animals with lesion degree +++++ (2 mg/kg): 0
- The number of animals with lesion degree − (2 mg/kg): 1
- average score of myocardial tissue lesion degree (2 mg/kg): 1.20 ± 0.63
- pathological damage of myocardial tissue (H&E staining): significantly improve the pathological damage of myocardial tissue

Reference: patent US20260285849A1, “METHYLOPHIOPOGONONE A DERIVATIVE, AND PREPARATION AND USE THEREOF” (INSTITUTE OF MATERIA MEDICA, CHINESE ACADEMY OF MEDICAL …, priority 2022, published 2026)
